Source: patent publication US11203596B2, “Analogs of 3-amino-4-(propan-2-ylidene)cyclopentane-1-carboxylic acid and uses thereof for treating diseases and disorders associated with ornithine aminotransferase activity” (Northwestern University, priority 2019, dated 2021)
Like-named read-outs stand apart in the source and are kept apart here.

What was measured:
hOAT [1] = biological target: T1, hOAT (Homo sapiens, UniProt P04181); assay: coupled enzyme hOAT assay; assay type: biochemical
T1 construct: made in house
T1 sequence (P04181 36-439 limits assumed): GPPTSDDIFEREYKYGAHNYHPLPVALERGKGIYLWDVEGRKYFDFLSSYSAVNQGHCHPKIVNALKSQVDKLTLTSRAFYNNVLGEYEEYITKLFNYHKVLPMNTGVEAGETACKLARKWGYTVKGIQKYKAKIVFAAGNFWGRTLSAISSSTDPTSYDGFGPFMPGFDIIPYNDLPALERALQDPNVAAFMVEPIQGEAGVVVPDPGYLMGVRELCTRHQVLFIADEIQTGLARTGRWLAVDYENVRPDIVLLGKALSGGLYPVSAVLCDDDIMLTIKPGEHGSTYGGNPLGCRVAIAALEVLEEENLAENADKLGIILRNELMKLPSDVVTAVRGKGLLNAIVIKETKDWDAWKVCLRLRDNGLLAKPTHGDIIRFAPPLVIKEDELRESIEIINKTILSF
Method: With inhibitors in hand, we tested for activity in a previously developed coupled enzyme hOAT assay.^9,21
hOAT and PYCR1 were expressed, grown, and purified according to literature procedures.^22,23 GABA-AT was isolated from pig brains and purified according to literature procedure.^16 Coupled enzyme assays for GABA-AT and hOAT were carried out according to previous procedures.^15,21 All chemical were purchased from Sigma Aldrich, Acros Organics, or Matrix Scientific and used without further purification. Anhydrous solvents (THF, CH2Cl2, DMF) were purified before use by passing through a column composed of activated alumina and a supported copper redox catalyst. Yields refer to chromatographically and spectroscopically (^1H-NMR) homogeneous material. Analytical thin-layer chromatography (TLC) was performed using Merck Silica Gel 60 Å F-254 precoated plates (0.25 mm thickness), and components were visualized by ultraviolet light (254 nm) and/or ceric ammonium molybdate stain. Flash column chromatography was performed on a Teledyne Combiflash Rf Plus automated flash purification system with various Teledyne cartridges (4-80 g, 40-63 μm, 60 Å). Purifications were performed with hexanes and ethyl acetate unless otherwise noted. ^1H and ^13C NMR spectra were recorded on a Bruker Avance-III NMR spectrometer at 500 MHz and 126 MHz, respectively, in CDCl3 or D2O. Chemical shifts were reported in ppm, multiplicities are indicated by s=singlet, d=doublet, t=triplet, q=quartet, sep=septet, dd=doublet of doublet, dt=doublet of triplet, m=multiplet, br=broad resonance. Coupling constants were reported in Hz. High resolution mass spectral data were obtained on an Agilent 6210 LC-TOF spectrometer in the positive ion mode using electrospray ionization with an Agilent G1312A HPLC pump and an Agilent G1367B autoinjector at the Integrated Molecular Structure Education and Research Center (IMSERC), Northwestern University. Analytical HPLC was performed by using a reserved-phase Agilent Infinity 1260 HPLC with a Phenomenex Kintex C-18 column (50×2.1 mm, 2.6 μm), detecting with UV absorbance at 254 nm.

HCC = HCC infected/bearing mice; cited from earlier work
hOAT [2] = biological target: T1, hOAT; details: earlier work, cited from earlier work

| Compound | Ki (hOAT [1]; hOAT inactivation) | kinact (hOAT [1]; hOAT inactivation, read-out: kinact (converted)) | kinact/KI (hOAT [1]; hOAT inactivation, read-out: kinact/KI (converted)) | activity against hOAT (in words) (hOAT [1]; hydrochloride) | activity against hOAT (in words) (hOAT [1]; listed as (1S,3S,Z)-3-amino-4-(1,1,1-trifluoro-3-methoxy-3-oxopropan-2-ylidene)cyclopentan, hydrochloride) | activity against hOAT (in words) (hOAT [1]) | HCC marker protein alpha-fetoprotein (HCC) | tumor size (HCC) | inhibition/inactivation of human OAT (in words) (hOAT [2]) | inhibition/inactivation of human OAT (in words) (hOAT [2]; listed as (1S,3 S)-3-amino-4-(perfluoropropan-2-ylidene)cyclopentane-1-carboxylic acid) | kinact (hOAT [1]) | kinact/KI (hOAT [1]) |
| --- | --- | --- | --- | --- | --- | --- | --- | --- | --- | --- | --- | --- |
| COC(=O)/C(=C1\C[C@H](C(=O)O)C[C@@H]1N)C(F)(F)F.Cl [Compound 10, (1S,3S,Z)-3-amino-4-(1,1,1-trifluoro-3-methoxy-3-oxopropan-2-ylidene)cyclopentane-1-carboxylic acid hydrochloride] | 130 µM | 0.00167 s⁻¹ | 12.2 M⁻¹ s⁻¹ | similarly potent inhibitor of hOAT | active |  |  |  |  |  |  |  |
| COC(=O)/C(=C1/C[C@H](C(=O)O)C[C@@H]1N)C(F)(F)F.Cl [Compound 11, (1S,3S,E)-3-amino-4-(1,1,1-trifluoro-3-methoxy-3-oxopropan-2-ylidene)cyclopentane-1-carboxylic acid hydrochloride] | ≥ 2000 µM |  |  |  |  | inactive |  |  |  |  |  |  |
| N[C@H]1C[C@@H](C(=O)O)CC1=C(C(F)(F)F)C(F)(F)F [Compound 1, (1S,3S)-3-amino-4-(perfluoropropan-2-ylidene)cyclopentane-1-carboxylic acid] | 53 µM |  |  |  |  |  | decrease | decrease | potent inhibitor | potent inactivator | 0.00133 s⁻¹ | 25.7 M⁻¹ s⁻¹ |
